In PMC4745983 (Frontiers in Cell and Developmental Biology, 2016):
≈ marks a conversion by molar mass, not a printed value. Read-outs that look alike come from different tables or passages of the source. Marks after values point to notes of the source that are not given here. No end group written: not given here.

Assays:
E. coli CECT101 = format: cell-based, Escherichia coli; conditions: for Activity against E. coli CECT101 relative to nisin: comparison of MIC values / growth curves (Table 6, Figure 3)
Method: (§1) L. lactis strains were cultured in M17 broth supplemented with 0.5% (w/v) glucose (GM17) for genetic manipulation or in minimal expression medium (MEM) for protein expression at 30°C (Rink et al., [2005]). E. coli CECT101 was grown in Luria-Bertani broth aerated by shaking (200 rpm) at 37°C.
(§2) The indicator strains were first cultured until OD (600 nm) reached 0.5. When testing the MIC value, the culture was diluted 1000 times with the appropriate medium. All the tests were performed with a temperature controlled plate reader (Tecan infinite F200, Tecan Group AG) in a 96-well plate (Greiner Bio-one). The peptides were first diluted in gradient with medium and then mixed with diluted indicator strains. The final concentration of the peptides ranged from 0.00625 to 0.8 μM against L. lactis MG1363 and from 0.25 to 32 μM against E. coli CECT101 in 100 μl volume. The plate was incubated at 30°C or 37°C for 18 h depending on the indicator strain being L. lactis or E. coli, respectively. OD (600 nm) was checked every 30 min. For E. coli, 2 min of shaking was performed before every check. When testing the activity of nisin against E. coli in the presence of EDTA, an EDTA solution was prepared and added to a final concentration of 50, 110, or 250 μM. The minimal concentration of peptide causing no observed growth of indicator strains was considered as the MIC value.

L. lactis MG1363 = format: cell-based, Lactococcus lactis; conditions: for MIC value, L. lactis MG1363: MG1363, 18 h
Method: as §1, §2

E. coli ATCC 25922 = conditions: indicator strain E. coli ATCC 25922, [2013], cited from earlier work
Text: Table 1 List of selected peptides with anti-Gram-negative bacteria activity. | column: MIC(μM)

E. coli BL21 AI = conditions: indicator strain E. coli BL21 AI, cited from earlier work
Text: To increase the activity of nisin against Gram-negative bacteria, both the inhibition activity and trans-outer membrane activity are important. When the first three rings of nisin are intact, the lipid II binding activity is stable. Retaining the pore formation activity is crucial. By further variation of the linker between the nisin part and the tail or searching for more effic ...

[1] = supernatant of L. lactis NZ9000 expression culture in MEM medium; conditions: Lactococcus lactis, 30°C, up to 3 h induction
[2] = supernatant of L. lactis NZ9000 expression culture in MEM medium, mixed with supernatant containing NisP; conditions: Lactococcus lactis, 30°C, up to 3 h induction; 1 h with NisP

C=C1NC(=O)[C@H]([C@@H](C)CC)NC(=O)[C@H](NC(=O)/C(=C/C)NC(=O)[C@@H](N)[C@@H](C)CC)CSC[C@@H](C(=O)N[C@H]2C(=O)N3CCC[C@H]3C(=O)NCC(=O)N[C@H](C(=O)N[C@@H](CCCCN)C(=O)N[C@H]3C(=O)NCC(=O)N[C@@H](C)C(=O)N[C@@H](CC(C)C)C(=O)N[C@@H](CCSC)C(=O)NCC(=O)N[C@H](C(=O)N[C@@H](CC(N)=O)C(=O)N[C@@H](CCSC)C(=O)N[C@@H](CCCCN)C(=O)N[C@H](C(=O)N[C@@H](Cc4ccc(O)cc4)C(=O)N[C@H](C(=O)N4CCC[C@H]4C(=O)N[C@@H](CCCNC(=N)N)C(=O)N4CCC[C@H]4C(=O)N[C@@H](CCCNC(=N)N)C(=O)N4CCC[C@H]4C(=O)N4CCC[C@H]4C(=O)N[C@@H](Cc4c[nH]cn4)C(=O)N4CCC[C@H]4C(=O)N[C@@H](CCCNC(=N)N)C(=O)O)[C@@H](C)CC)C(C)C)CS[C@H]3C)CS[C@H]2C)NC(=O)[C@H](CC(C)C)NC1=O [GNT1]
MIC value, E. coli CECT101 (E. coli CECT101; CECT101, 18 h): >16 µM
Activity against E. coli CECT101 relative to nisin (E. coli CECT101): lower net activity than nisin
MIC value, L. lactis MG1363 (L. lactis MG1363): 1 µM (≈ 3.61 µg/mL)

C=C1NC(=O)[C@H]([C@@H](C)CC)NC(=O)[C@H](NC(=O)/C(=C/C)NC(=O)[C@@H](N)[C@@H](C)CC)CSC[C@@H](C(=O)N[C@H]2C(=O)N3CCC[C@H]3C(=O)NCC(=O)N[C@H](C(=O)N[C@@H](CCCCN)C(=O)N[C@H]3C(=O)NCC(=O)N[C@@H](C)C(=O)N[C@@H](CC(C)C)C(=O)N[C@@H](CCSC)C(=O)NCC(=O)N[C@H](C(=O)N[C@@H](CC(N)=O)C(=O)N[C@@H](CCSC)C(=O)N[C@@H](CCCCN)C(=O)N4CCC[C@H]4C(=O)N4CCC[C@H]4C(=O)N[C@@H](Cc4ccc(O)cc4)C(=O)N[C@@H](CC(C)C)C(=O)N4CCC[C@H]4C(=O)N[C@@H](CCCNC(=N)N)C(=O)N4CCC[C@H]4C(=O)N[C@@H](CCCNC(=N)N)C(=O)N4CCC[C@H]4C(=O)N4CCC[C@H]4C(=O)N[C@@H](CCCNC(=N)N)C(=O)N[C@@H](CCCNC(=N)N)C(=O)N[C@H](C(=O)N[C@@H](Cc4ccc(O)cc4)C(=O)N[C@@H](CC(N)=O)C(=O)N[C@@H](CCCNC(=N)N)C(=O)O)[C@@H](C)CC)CS[C@H]3C)CS[C@H]2C)NC(=O)[C@H](CC(C)C)NC1=O [GNT6]
MIC value, E. coli CECT101 (E. coli CECT101; CECT101, 18 h): >16 µM
Activity against E. coli CECT101 relative to nisin (E. coli CECT101): lower net activity than nisin

C=C1NC(=O)[C@H]([C@@H](C)CC)NC(=O)[C@H](NC(=O)/C(=C/C)NC(=O)[C@@H](N)[C@@H](C)CC)CSC[C@@H](C(=O)N[C@H]2C(=O)N3CCC[C@H]3C(=O)NCC(=O)N[C@H](C(=O)N[C@@H](CCCCN)C(=O)N[C@H]3C(=O)NCC(=O)N[C@@H](C)C(=O)N[C@@H](CC(C)C)C(=O)N[C@@H](CCSC)C(=O)NCC(=O)N[C@H](C(=O)N[C@@H](CC(N)=O)C(=O)N[C@@H](CCSC)C(=O)N[C@@H](CCCCN)C(=O)N4CCC[C@H]4C(=O)N[C@@H](CCCNC(=N)N)C(=O)N4CCC[C@H]4C(=O)N[C@@H](CCCNC(=N)N)C(=O)N4CCC[C@H]4C(=O)N4CCC[C@H]4C(=O)N[C@@H](CCCNC(=N)N)C(=O)N[C@@H](CCCNC(=N)N)C(=O)N[C@H](C(=O)N[C@@H](Cc4ccc(O)cc4)C(=O)N[C@@H](CC(N)=O)C(=O)N[C@@H](CCCNC(=N)N)C(=O)O)[C@@H](C)CC)CS[C@H]3C)CS[C@H]2C)NC(=O)[C@H](CC(C)C)NC1=O [GNT7]
MIC value, E. coli CECT101 (E. coli CECT101; CECT101, 18 h): >16 µM
Activity against E. coli CECT101 relative to nisin (E. coli CECT101): lower net activity than nisin
MIC value, L. lactis MG1363 (L. lactis MG1363): 0.2 µM (≈ 0.74 µg/mL)
Activity against L. lactis relative to GNT16 (L. lactis MG1363; from MIC values): equal activity as GNT16

C=C1NC(=O)[C@H]([C@@H](C)CC)NC(=O)[C@H](NC(=O)/C(=C/C)NC(=O)[C@@H](N)[C@@H](C)CC)CSC[C@@H](C(=O)N[C@H]2C(=O)N3CCC[C@H]3C(=O)NCC(=O)N[C@H](C(=O)N[C@@H](CCCCN)C(=O)N[C@H]3C(=O)NCC(=O)N[C@@H](C)C(=O)N[C@@H](CC(C)C)C(=O)N[C@@H](CCSC)C(=O)NCC(=O)N[C@H](C(=O)N[C@@H](CC(N)=O)C(=O)N[C@@H](CCSC)C(=O)N[C@@H](CCCCN)C(=O)N4CCC[C@H]4C(=O)N[C@@H](CCCNC(=N)N)C(=O)N4CCC[C@H]4C(=O)N4CCC[C@H]4C(=O)N[C@@H](Cc4c[nH]cn4)C(=O)N4CCC[C@H]4C(=O)N[C@@H](CCCNC(=N)N)C(=O)N[C@@H](CC(C)C)C(=O)O)CS[C@H]3C)CS[C@H]2C)NC(=O)[C@H](CC(C)C)NC1=O [GNT16-3rings]
MIC value, E. coli CECT101 (E. coli CECT101; CECT101, 18 h): >32 µM
Activity against E. coli CECT101 relative to nisin (E. coli CECT101): lower net activity than nisin
MIC value, L. lactis MG1363 (L. lactis MG1363): 1 µM (≈ 3.09 µg/mL)

C=C1NC(=O)[C@H]([C@@H](C)CC)NC(=O)[C@H](NC(=O)/C(=C/C)NC(=O)[C@@H](N)[C@@H](C)CC)CSC[C@@H](C(=O)N[C@H]2C(=O)N3CCC[C@H]3C(=O)NCC(=O)N[C@H](C(=O)N[C@@H](CCCCN)C(=O)N[C@H]3C(=O)NCC(=O)N[C@@H](C)C(=O)N[C@@H](CC(C)C)C(=O)N[C@@H](CCSC)C(=O)NCC(=O)N[C@H](C(=O)N[C@@H](CC(N)=O)C(=O)N[C@@H](CCSC)C(=O)N[C@@H](CCCCN)C(=O)N[C@H]4C(=O)N[C@@H](C)C(=O)N[C@H]5C(=O)N[C@@H](CS[C@H]4C)C(=O)N[C@@H](Cc4c[nH]cn4)C(=O)N[C@H](C(=O)N[C@@H](CO)C(=O)NCC(=O)N4CCC[C@H]4C(=O)N[C@@H](CCCNC(=N)N)C(=O)N4CCC[C@H]4C(=O)N4CCC[C@H]4C(=O)N[C@@H](Cc4c[nH]cn4)C(=O)N4CCC[C@H]4C(=O)N[C@@H](CCCNC(=N)N)C(=O)N[C@@H](CC(C)C)C(=O)O)CS[C@H]5C)CS[C@H]3C)CS[C@H]2C)NC(=O)[C@H](CC(C)C)NC1=O [GNT16SG]
Activity against E. coli CECT101 relative to nisin (E. coli CECT101): lower net activity than nisin
Activity against E. coli relative to GNT16 (E. coli CECT101; from MIC values): more than four times lower activity
Activity against L. lactis relative to GNT16-3rings (times higher) (L. lactis MG1363; from MIC values): 2.5 times

GIGKHVGKALKGLKGLLKGLGEC-NH2 [ADP2]
MIC (E. coli ATCC 25922; ref Iliæ et al.): 1^f μM

GNNRPVYIPQPRPPHPRL [Apidaecin 1b]
MIC (E. coli BL21 AI; ref Berthold et al., [2013]): 0.5^b μM
MIC (E. coli BL21 AI; ref Berthold et al., [2013], listed as apidaecin 1b): 0.5 µM

Gu-ONNRPVYIPRPRPPHPRL-NH2 [Api 88, derivative of apidaecin 1b with increased positive charges and an amidated C-terminus]
MIC (E. coli BL21 AI; ref Czihal et al., [2012]): 0.2^b μM

KKLFKKILKYL-NH2 [R-BP100]
MIC (E. coli ATCC 25922; ref Torcato et al.): 0.9 ± 0.4^f μM

Nisin + GKHVGKALKGLKGLLK
cleaved bond [1]: Val32-Dha33

Ring ABC + NGKPRPYSPRPTSHPRPIRV
cleaved bond [2]: P-I

Ring ABC + NGKPRPYSPRPTSHPRPIRV (bicyclic or more) [GNT8, nisin Ring ABC + drosocin tail]
MIC value, E. coli CECT101 (E. coli CECT101; Luria-Bertani broth, 96-well plate, 100 μl, 37°C, 18 h, OD600 every 30 min, peptide 0.25-32 μM, lowest concentration with no observed growth, repeated at least two times): >16 µM
Activity against E. coli CECT101 relative to nisin (E. coli CECT101): lower net activity than nisin

Ring ABC + NMKPPYLPRPRPPRRIYNR
cleaved bond [2]: Y-N and I-Y

Ring ABC + NMKPRPRPPRRIYNR
cleaved bond [2]: N-R and Y-N and I-Y and R-I

VDKPPYLPRPRPPRRIYNR-NH2 [Oncocin]
MIC (E. coli BL21 AI; ref Knappe et al., [2010]): 1.7^b μM
